Experimental data published in patent US20070254887A1, “Pharmaceutical Composition for Transdermal Administration of Perospirone” (priority 2004, published 2007).
Counter-ions that a name gives are not always drawn.

Key:
antiserotonin activity = conditions: rat; cited from earlier work
[1] = tested on: tryptamine-induced clonic seizures of forepaws; assay: Antiserotonin activities in rat tryptamine-induced clonic seizures of forepaws model; type: in vivo, SD rats; conditions: for Efficacy (positive numbers/total numbers): placebo tape 1 cm × 1 cm
Procedure: Antiserotonin activities of the perospirone tape prepared in Example 14 (Formulation 10) and the perospirone tape prepared in Example 15 (Formulation 11) were assessed in a rat tryptamine-induced clonic seizures of forepaws model. The test was carried out according to the description of Jpn. J. Pharmacol. 53, 321-329 (1990).
Specifically, 7-week-old SD rats were dehaired the back on the day before the test, the tapes were patched on the back, and further water was administered orally in an amount of 5 ml/Kg. After the patching of tapes, a tryptamine hydrochloride was administered via tail veins in a dose of 40 mg/Kg at predetermined times as assessment times, and appearance of a clonic seizures of forepaws was observed.
7-Week-old SD rats were dehaired the back on the day before the test, patched with the placebo tape (Reference Formulation 1) containing no perospirone prepared in Reference Example 1 on the back, and administered orally perospirone hydrochloride hydrate in a dose of 3 mg/Kg or 0.5 mg/Kg. After administrations, a tryptamine hydrochloride was administered via tail veins in a dose of 40 mg/Kg at predetermined times as assessment times. An inhibitory effect of a tryptamine-induced behavior was determined in the same manner as Experiment 1.

[2] = tested on: apomorphine-induced stereotypy; assay: Antidopaminergic activities in rat apomorphine-induced stereotypy model; type: in vivo, SD rats; conditions: for Efficacy (positive numbers/total numbers): placebo tape 1 cm × 1 cm
Procedure: […]. The test was carried out according to the description of Jpn. J. Pharmacol. 53, 321-329 (1990).
Specifically, 7-week-old SD rats were dehaired the back on the day before the test, patched the tapes on the back, and further water was administered orally in an amount 5 ml/Kg. After the patching, an apomorphine hydrochloride was administered via tail veins in a dose of 1.25 mg/Kg at predetermined times as assessment times, and stereotypy was observed.
7-Week-old SD rats were dehaired the back on the day before the test, patched the placebo tape (Reference Formulation 1) containing no perospirone prepared in Reference Example 1 on the back, and administered orally perospirone hydrochloride hydrate in a dose of 10 mg/Kg or 2 mg/Kg. Thereafter, an apomorphine hydrochloride was administered via tail veins in a dose of 1.25 mg/Kg at predetermined times as assessment times. An inhibitory effect of an apomorphine-induced behavior was determined in the same manner as Experiment 2.

[3] = Blood kinetics assessment: serum concentrations of perospirone and ID-15036 after transdermal or oral administration; type: in vivo, SD male rats; conditions: rat, oral administration, first measurement point (FIG. 5)
Procedure: 7-Week-old SD male rats were anesthetized and dehaired the abdomen. The rats were administered with transdermal formulations Formulations 1 to 8 in the sites of the dehaired abdomen and constantly collected blood, and serums were separated. The serums were partitioned and extracted with n-hexane-chloroform (7:3) and about 0.0005M aqueous sodium hydroxide solution, and the organic layers were evaporated and dried to solids. The resulting solids were dissolved, and serum concentrations of perospirone and its main metabolite ID-15036 were determined by quantification via reverse phase high performance liquid chromatography. […]
7-Week-old SD male rats were administered orally with 10 mg/kg of a solution of perospirone hydrochloride hydrate in a distilled water for injection in a concentration of 2 mg/ml, and the blood was collected with lapse of time. Serum concentrations of perospirone and the main metabolite ID-15036 were determined in the same manner as Experiment 3. […]

Question: For `O=C1C2CCCCC2(O)C(=O)N1CCCCN1CCN(c2nsc3ccccc23)CC1` (centres unmarked) [ID-15036], which “antiserotonin activity compared to perospirone” value (antiserotonin activity) is on record?
Answer: Its value is “about ⅛”.

Question: Which results are given for `O=C1[C@H]2CCCC[C@H]2C(=O)N1CCCCN1CCN(c2nsc3ccccc23)CC1` [perospirone hydrochloride hydrate]?
Answer: Efficacy (positive numbers/total numbers) ([1]; oral 0.5 mg/Kg, 1 hour after administration): 0/5; Efficacy (positive numbers/total numbers) ([1]; oral 3 mg/Kg, 1 hour after administration): 3/5; Efficacy (positive numbers/total numbers) ([1]; oral 3 mg/Kg, 10 hours after administration): 0/7; Efficacy (positive numbers/total numbers) ([2]; oral 2 mg/Kg, 1 hour after administration): 2/5; Efficacy (positive numbers/total numbers) ([2]; oral 10 mg/Kg, 1 hour after administration): 5/5; Efficacy (positive numbers/total numbers) ([2]; oral 10 mg/Kg, 10 hours after administration): 4/5; Efficacy (positive numbers/total numbers) ([2]; oral 10 mg/Kg, 48 hours after administration): 0/5; time of maximum serum concentrations after administration [3]: 30 min

Question: For `O=C1[C@H]2CCCC[C@H]2C(=O)N1CCCCN1CCN(c2nsc3ccccc23)CC1` [perospirone, cis-N-[4-[4-(1,2-benzisothiazol-3-yl)-1-piperazinyl]butyl]cyclohexane-1,2-dicarboximide], which antiserotonin activities ([1]; oral administration, group of 3 mg/Kg) is on record?
Answer: Its antiserotonin activities is “antiserotonin activities could not be recognized 10 hours after administration”.

Question: What about the antidopaminergic activities ([2]; oral administration) of the same molecule?
Answer: The antidopaminergic activities was “showed antidopaminergic activities 1 and 10 hours after administration but not 48 hours after administration”.
